Measurements reported in patent US10434057B2, “Cosmetic composition comprising osmanthus asiaticus extract and clematis apiifolia extract” (AMI COSMETIC CO., LTD., priority 2017, dated 2019).

Experiments:
[1] = Free radical scavenging activity by ABTS assay; assay type: biochemical; details: measured at 732 nm; lower SC50 = higher activity
Procedure: Each of the extracts of Examples and Comparative Examples was suspended in purified water to evaluate a free radical scavenging activity of each of the extracts. […] Vitamin C was used as the control, and a 50% scavenging concentration (SC50) of the ABTS radicals was measured. Then, the measured SC50 of the ABTS radicals was compared to that of the control (Table 4). In particular, the free radical scavenging activities at different concentrations were measured in the case of Example 1, and compared to that of the control (FIG. 1).

[2] = Free radical scavenging activity by DPPH assay; assay type: biochemical; details: optical density at 540 nm; lower SC50 = higher activity
Procedure: Each of the extracts of Examples and Comparative Examples was suspended in purified water to evaluate a free radical scavenging activity of each of the extracts. A DPPH assay is a method of measuring an optical density at 540 nm to measure a level of discoloration caused by an inhibitor scavenging stable 2,2-diphenyl-1-picrylhydrazyl (DPPH) radicals. Vitamin C was used as the control, and a 50% scavenging concentration (SC50) of the DPPH radicals was measured. Then, the measured SC50 of the DPPH radicals was compared to that of the control (Table 3). In particular, the free radical scavenging activity of the sample of Example 1 at different concentrations was measured, and compared to that of the control (FIG. 1).

[3] = test system: women; test: Skin elasticity-improving effect of formulated creams (Cutometer MPA580); assay type: in vivo; details: cream around the eyes twice a day for 12 weeks; Cutometer MPA580 R8 value
Procedure: A skin elasticity-improving effect of the cosmetic composition including each of the samples obtained in Examples and Comparative Examples was evaluated. The respective samples were formulated into creams having the same compositions. In this case, only the samples of Examples 1 to 9 and Comparative Examples 1 to 12 differed. Healthy women over the age of 20 years old (with an average age of 37 years old) were divided into groups, and instructed to apply the formulated creams of Examples and Comparative Examples onto their faces under conditions of a temperature of 24 to 26° C. and a humidity of 75%. The formulated creams were applied around the eyes twice (morning and evening) a day for 12 weeks, and the skin elasticity was measured using a skin elastometer (Cutometer MPA580 commercially available from Courage+Khazaka Electronic GmbH, Germany). The test results were expressed as R8 (R8 (week 12)−R8 (week 0)) values of the Cutometer MPA580, and the R8 values represented properties such as skin viscoelasticity.

[4] = test system: B16F10 cells; test: Melanin content assay (amount of produced melanin); assay type: cell-based; details: α-MSH stimulated, sample 200 μg/mL (50 mg/L), 48 hours, arbutin 200 μg/mL as control
Procedure: To check a whitening effect of the samples of Examples and Comparative Examples, an ability of the samples of Examples and Comparative Examples to inhibit melanogenesis was evaluated using a melanin content assay (Eisinger M et al., 1982; Siegrist W and Eberle A N, 1986). Each of the samples of Examples and Comparative Examples was suspended at a concentration of 50 mg/L in purified water, and an amount of produced melanin was determined.
B16F10 cells were seeded at a concentration of 1.5×10^5 cells/well in a 60 mm culture dish, and then cultured for 24 hours. A melanogenesis-stimulating hormone, α-MSH (Sigma-Aldrich, St. Louis, Mo., USA), and each of the samples of Examples and Comparative Examples were added to a medium at a concentration of 200 μg/mL (Virador V M et al., 1999).
After 48 hours had elapsed, the cells were harvested, and then washed once with PBS. Thereafter, 120 μL of a 1 N NaOH lysis buffer was added thereto, and the resulting mixture was heated at 95° C. for 10 minutes to lyse the cells. The optical density at a wavelength of 450 nm was measured using a microplate reader. Here, arbutin at a concentration of 200 μg/mL was used as the control (Table 6).
In particular, the melanin production rates at different concentrations were measured in the case of Example 1 (FIG. 1).

Structure (SMILES) | 50% Scavenging Concentration (SC50) of ABTS Radicals [1] [µg/mL] | 50% Scavenging Concentration (SC50) of DPPH Radicals [2] [µg/mL] | Skin elasticity-improving effect, R8 (week 12) − R8 (week 0) [3] | Melanin production rate [4] [%]
O=C1O[C@H]([C@@H](O)CO)C(O)=C1O [Control (Vitamin C), Vitamin C] | 8.7 | 8.7 | 0.92 | 
OC[C@H]1O[C@@H](Oc2ccc(O)cc2)[C@H](O)[C@@H](O)[C@@H]1O [Positive control, arbutin] |  |  |  | 38.2
